One experiment relates to breast tumor. The following applies: animal models; Hahn et al. 2006; cited from earlier work.
Experiment [1] relates to 4T1 metastatic breast cancer cells. The experiment in a line: Adhesion assay: 4T1 cell adhesion to a Matrigel-coated surface. It counts as cell-based, mouse. The conditions noted are these: for anti-adhesion potency (in words) / anti-adhesion activity relative to VES (FIG. 2A, in words): 4T1 cells, Matrigel-coated surface; for anti-adhesion activity relative to VES (FIG. 2A, in words): each at 5 μM. Here is the method:
Adhesion Assay. Ninety six-well plates were coated with 12% (v/v) Matrigel (BD Biosciences) at 37° C. for 1 hour, washed twice with washing buffer (0.1% BSA-containing RPMI medium) followed by blocking with 0.5% BSA-containing RPMI medium at 37° C. for 60 minutes. 4T1 cells were treated with individual derivatives at the indicated concentrations at 37° C. in a CO2 incubator for 60 minutes, and 2×10^4 cells in 100 μl were seeded in each well. Cells were allowed to adhere to the Matrigel-coated surface for 30 min at 37° C., and nonadherent cells were removed by gentle washing with the aforementioned washing buffer. Adherent cells were fixed with 10% formalin, stained with 0.5% crystal violet, and dissolved in 2% SDS. Absorbance at 570 nm was measured in an ELISA plate reader (Molecular device, Sunnyvale, Calif.).

The test system of experiment [2] is focal adhesion kinase (FAK). The experiment in a line: FAK protein stability by Western blotting. The class given is cell-based, mouse. The following applies: each at 5 μM, 4T1 cells, 1 h. The protocol:
(§1) VES derivatives target focal adhesion kinase (FAK) degradation. Considering the important role of FAK in regulating the formation of focal adhesions and actin stress fibers (McLean et al., Nat Rev Cancer 5, 505-15 (2005)), the effect of compound 2 on focal adhesion sites in 4T1 cells was assessed by immunostaining with anti-FAK antibodies, the results of which are shown in FIG. 4A. […] It is noteworthy that the disruption of actin stress fibers and focal adhesion by compound 2 is reminiscent of that induced by mannitol in neuroblastoma cells. Kim et al. J Biol Chem 277, 27393-400 (2002). As mannitol-induced cytoskeletal changes were preceded by the degradation of FAK, the effects of compound 2 relative to VES, TS-1, and compounds 1 and 3, each at 5 μM, on FAK protein stability in 4T1 cells was investigated by Western blotting.
(Immunoblotting shows a protein as a band on a membrane.)

The test system of experiment [3] is 4T1 cells. The experiment in a line: F-actin immunostaining (actin cytoskeletal structure). The conditions noted are these: for reduction in the fluorescent intensity of F-actin relative to the DMSO control: 4 h, 4T1 cells; for effect on actin cytoskeleton (stress fibers, lamellipodia; in words): 4 hours of exposure, FIG. 3B. It counts as cell-based, mouse. The protocol: F-actin Immunostaining To assess the effect of test compounds on actin cytoskeletal structures, cells were seeded onto coverslips in six-well plates and incubated overnight, followed by exposure to individual agents at the indicated concentrations for 4 h in 2% FBS-containing RPMI 1640 medium. Cells were then fixed in 3.7% formaldehyde, permeabilized with PBS containing 0.1% Triton X-100 and 0.1% BSA for 1 h, and then incubated with Alexa Fluor 488 phallotoxin staining solution (Molecular Probes, Inc., Eugene, Oreg.) for 30 min. Nuclear counterstaining was achieved by use of 4,6-diamidino-2-phenylindole (DAPI)-containing mounting medium. Immunocytochemically labeled cells were visualized and images captured using a Zeiss microscope (LSM510) with Argon and HeNe lasers, appropriate filters (excitation wavelengths were 488 nm and 543 nm), and a 63×1.4 numerical aperture water immersion lens. Differences in fluorescence intensity were calculated from comparisons of the control sample with each of the treatment samples under the same threshold using MacBiophotonic ImageJ software (National Institutes of Health) and were expressed as percentages of the fluorescent intensity of the untreated control. Statistical significance was evaluated using Student's t-test and considered significant at P<0.05.

Experiment [4] concerns 4T1 cells. The experiment in a line: Transwell (Boyden chamber) migration assay, serum-induced. The class given is cell-based, mouse. The following applies: FIG. 3A. Here is the method: Migration Assay. 4T1 cells were trypsinized for 5 min, washed, and suspended in 0.2% FBS-supplemented RPMI 1640 medium. Five×10^4 cells in 0.5 ml of 0.2% FBS-supplemented RPMI medium containing individual test agents at the indicated concentrations were added to the upper chamber (i.e., insert) of each Transwell system (12 mm, polycarbonate, 12-μm pore, Millipore) in a 24-well plate, and incubated at 37° C. in a CO2 incubator for 30 min. The inserts were then switched to a new well containing 10% FBS-supplemented RPMI 1640 medium for 24 h. All cells in each well were fixed with 10% formalin followed by staining with 0.5% crystal violet. To quantify migrated cells, cells attached to the bottom side of the upper chamber and in the bottom of the well were wiped with a moistened cotton swab, which was then rinsed with 80 μl DDW. The cells were then dissolved by the addition of 320 μl 100% methanol. Enumeration of non-migrated cells was done by placing the chamber into 400 μl of 80% methanol, and incubating for 30 min in an orbital shaker. Absorbance at 570 nm was measured in an ELISA plate reader. Percentage of cell migration in each well was calculated using the following equation: % of migration=100×[(O.D. of migrated cells)−(O.D. of background)]/{[(O.D. of migrated cells)−(O.D. of background)]+[(O.D. of non-migrated cells)−(O.D. of background)]}. The migration activity in each treatment group is expressed as a percentage of that in the vehicle controls, which was considered to be 100%.

Experiment [5] concerns focal adhesion kinase (FAK). The experiment in a line: Focal adhesion sites by immunostaining with anti-FAK antibody. The class given is cell-based, mouse. The following applies: 2.5 μM, 1 h, 4T1 cells. The protocol:
as §1

Setting [6] is: Mus musculus, 4T1, adhesion to Matrigel-coated surface, FIG. 2B, read-out: IC50, inhibiting 4T1 cell adhesion.

Entries after “also recorded” stand apart in the source; their conditions may differ. Like-named read-outs stand apart in the source and are kept apart here.

`Cc1c(C)c2c(c(C)c1OCC(=O)O)CCC(C)(CCCC(C)CCCC(C)CCCC(C)C)O2` (stereo not drawn) [α-tocopheryloxyacetic acid]: in the experiment with breast tumor, the “effect on breast tumor growth and lung metastasis (in words)” value was “suppress breast tumor growth and to reduce lung metastasis”.

With `Cc1c(C)c2c(c(C)c1OC(=O)CCC(=O)O)CCC(C)(CCCC(C)C)O2` (stereo not shown) [TS-2], in experiment [1], the “anti-adhesion potency (in words)” value is recorded as “substantially improved potency vis-à-vis VES” and the “anti-adhesion activity relative to VES (FIG. 2A, in words)” value is “to a lesser extent”.

By IC50 is commonly meant the midpoint of a concentration-inhibition curve. `Cc1c(C)c2c(c(C)c1OCC(=O)O)CCC(C)(C=CCC(C)CCCC(C)C)O2` (stereo not shown) [compound 2, [2-(4,8-Dimethyl-non-1-enyl)-2,5,7,8-tetramethyl-chroman-6-yloxy]-acetic acid]: the “FAK degradation (in words)” value in experiment [2] was “induced FAK degradation”. Also, in the experiment with 4T1 cells [3] (5 μM), the “reduction in the fluorescent intensity of F-actin relative to the DMSO control” value stood at 84%; the “effect on actin cytoskeleton (stress fibers, lamellipodia; in words)” value is “rapid dissolution of stress fiber and impairment of lamellipodia formation”. Besides, the “inhibition of serum-induced 4T1 cell migration (in words)” value (“inhibition” below) with 4T1 cells [4] (5 μM) is “effective in inhibiting cell migration”. Moreover, in experiment [5], the “effect on focal adhesion sites (FAK punctate staining; in words)” value is recorded as “loss of focal adhesion sites; also recorded: no longer detectable”. For the same molecule, the IC50 in experiment [1] (setting [6]) was 600 nM. Besides, the IC50 in experiment [1] (Mus musculus, 4T1, summary statement b23, read-out: IC50, blocking the adhesion of 4T1 metastatic breast cancer cells) was 600 nM.

Take `Cc1c(C)c2c(c(C)c1OC(=O)CCC(=O)O)CCC(C)(C=CCC(C)CCCC(C)C)O2` (stereo not shown) [compound 1, Succinic acid mono-[2-(4,8-dimethyl-non-1-enyl)-2,5,7,8-tetramethyl-chroman-6-yl]ester]: in the experiment with 4T1 cells [4] (5 μM), the “inhibition” value is “effective in inhibiting cell migration”. In addition, the “anti-adhesion potency (in words)” value in experiment [1] is reported as “multifold improvement in the anti-adhesion potency”. For the same molecule, the IC50 in experiment [1] (setting [6]) came out at 1300 nM.

Turning to `Cc1c(C)c2c(c(C)c1OC(=O)CCC(=O)O)CC[C@@](C)(CCC[C@H](C)CCC[C@H](C)CCCC(C)C)O2` [VES, α-tocopheryl succinate, reference compound], the “FAK degradation (in words)” value in experiment [2] is on record as “less evident or not appreciable”. Besides, in the experiment with 4T1 cells [4] (50 μM), the “inhibition” value is listed as “little effect”. Moreover, in experiment [1], the “anti-adhesion potency (in words)” value was “modest inhibitory effect”.

As to `Cc1c(C)c2c(c(C)c1OC(=O)CCC(=O)O)CCC(C)(CCCC(C)CCCC(C)C)O2` (stereo not shown) [TS-1], the “FAK degradation (in words)” value in experiment [2] was “less evident or not appreciable”. In the experiment with 4T1 cells [4] (5 μM), the “inhibition” value is given as “little effect”. Moreover, in experiment [1], the “anti-adhesion potency (in words)” value was “substantially improved potency vis-à-vis VES” and the “anti-adhesion activity relative to VES (FIG. 2A, in words)” value was “significantly improved potencies”. Further, the IC50 in experiment [1] (adhesion to Matrigel-coated surface, FIG. 2B, read-out: IC50, inhibiting 4T1 cell adhesion) was found to be 2500 nM.

With `Cc1c(C)c2c(c(C)c1OCC(=O)O)CCC(C)(CCCC(C)CCCC(C)C)O2` (stereo not shown) [compound 3, [2-(4,8-Dimethyl-nonyl)-2,5,7,8-tetramethyl-chroman-6-yloxy]-acetic acid], in the experiment with 4T1 cells [3] (10 μM), the “reduction in the fluorescent intensity of F-actin relative to the DMSO control” value came out at 70%; the “effect on actin cytoskeleton (stress fibers, lamellipodia; in words)” value is “rapid dissolution of stress fiber and impairment of lamellipodia formation”. In addition, the “inhibition” value in the experiment with 4T1 cells [4] (5 μM) is given as “effective in inhibiting cell migration”. Besides, the IC50 in experiment [1] (setting [6]) is 2000 nM.
